Data on one substance can be found in patent US6534063B1, “Methods for treating pervasive development disorders” (priority 1999, dated 2003).

No end group written: not given here.

The test system of test [1] is fecal chymotrypsin (FC) levels. Nature of the test: Weekly fecal chymotrypsin test during 6 months of secretin, 37 autistic children (Experiment 2). The following applies: 6 months post-secretin administration; of 37 children, all abnormal pre-secretin. Type of test: in vivo. Here is the method:
(§1) In this experiment, 16 children diagnosed as having autism were administered the following Fecal Chymotrypsin Test in accordance with an embodiment of the invention. First, approximately 2 grams of stool were collected from each child and placed in a sterile container (although it is to be understood that any quantity of stool may be collected, as 2 grams of stool is not a required amount). Each stool sample was then analyzed using, e.g., an enzymatic photospectrometry analysis as is known by those skilled in the art, to determine the level of fecal chymotrypsin in the stool. Although the enzymatic photospectrophotometry process is preferred, any suitable conventional method may be used for measuring the fecal chymotrypsin levels. The measured chymotrypsin levels of the 16 autistic children are illustrated in FIG. 13.
After determining the chymotrypsin levels of the stools, each of these levels were compared with threshold chymotrypsin levels to determine if the child was likely to benefit from secretin administration. By way of example, with the fecal chymotrypsin tests of the stool samples being performed at 30° C., normal levels of chymotrypsin are deemed to lie above 8.4 U/gram, whereas pathologically abnormal levels are deemed to lie below 4.2 U/gram. In addition, chymotrypsin levels between 8.4 U/gram and 4.2 U/gram are considered equivocal, and further testing of the individual's fecal chymotrypsin levels over a period of time should be performed.
A preferred secretin infusion process includes the initial step of prepping an arm of the candidate child with an IV injection of saline. A test dose of 1 U of Secretin-Ferring is then administered to the child. […]
In this experiment, 37 autistic children with abnormal fecal chymotrypsin levels were administered secretin over the course of 6 months using the secretin infusion process described above. Their fecal chymotrypsin (FC) levels were measured weekly using the fecal chymotrypsin test described above.

For test [2], the system named is children diagnosed with Autism. The following applies: secretin given as diagnostic procedure during upper gastrointestinal endoscopy; cited from earlier work.
Test [3] deals with children diagnosed as having autism. Nature of the test: CARS (Childhood Autism Rating Scale) test pre- and post-secretin (Experiment 1). Type of test: in vivo. The following applies: 16 autistic children. Here is the method: Upon determining that a given child was likely to benefit from secretin administration based on the results of the fecal chymotrypsin test, the child was administered a CARS (Childhood Autism Rating Scale) test prior to being scheduled for secretin infusion.
For each of the 16 autistic children tested, a preferred secretin infusion process according to the present invention was performed involving the administering of 1 U/kg of body weight of Secretin-Ferring for a period of nine months at intervals of approximately 6 weeks. In addition, another CARS test was administered to each of the 16 autistic children 3 weeks post secretin administration to determine if their autism had changed post infusion.
A preferred secretin infusion process includes the initial step of prepping an arm of the candidate child with an IV injection of saline. A test dose of 1 U of Secretin-Ferring is then administered to the child. Approximately one minute after infusion, the child is examined for signs of allergic reaction including rash, increased heart rate, and increase of blood pressure. […] Subsequently, each child receives a 1 U/kg of body weight infusion of Secretin-Ferring approximately every 6 weeks for 9 months. It is to be understood that any commercially available form of secretin may be used.

In another test the test system is fecal chymotrypsin level. Nature of the test: Fecal Chymotrypsin Test after secretin infusion, 16 autistic children (Experiment 1). The following applies: each of 16 autistic children; approximately one week after first secretin infusion, 1 U/kg IV; compared with pre-secretin levels. Type of test: in vivo. Here is the method: as §1
After determining the chymotrypsin levels of the stools, each of these levels were compared with threshold chymotrypsin levels to determine if the child was likely to benefit from secretin administration. By way of example, with the fecal chymotrypsin tests of the stool samples being performed at 30° C., normal levels of chymotrypsin are deemed to lie above 8.4 U/gram, whereas pathologically abnormal levels are deemed to lie below 4.2 U/gram. […]

“secretin (HSDGTFTSELSRLRDSARLQRLLQGLV-NH2; ends and bridges not checked; UniProt P63298 33-59, looked up) [gastrointestinal peptide hormone]”: in test [1], the “# Autistic Children w/Abnormal FC levels” value was 1, the “# Autistic Children w/Equivocal FC levels” value was determined as 2 and the “# Autistic Children w/normal FC levels” value stood at 34. The “symptoms associated with Autism” value in test [2] is listed as “ameliorating the symptoms associated with Autism”. Moreover, in test [3] (3 weeks post infusion), the “CARS component scores (all except fear)” value is recorded as “demonstrated improvement” and the “CARS fear component score” value is listed as “increased”. Also, the “CARS scores (overall)” value in test [3] (approximately 3 weeks after first secretin administration vs pre-secretin) is on record as “overall decrease”. Also, in the test on fecal chymotrypsin level, the “fecal chymotrypsin level post-secretin administration” value was “increased”.
